According to US20250064093A1, “FERMENTED PH-INDEPENDENT SOLUTION SPOILAGE CONTROL IN FOOD SYSTEMS” (Third Wave Bioactives, LLC, priority 2023, published 2025):

System: yeast
Assay: Natural spoilage of chicken salad, growth of yeast
Type: cell-based
Details: 500 ppm Nisin
Protocol: The chicken salad was freshly made and allowed to spoil naturally over time. To prevent the product from being spoiled by Lactic Acid Bacteria (LAB), which can cause an accumulation of lactic acid reducing the pH over time, Nisin preparation (500 ppm) was added. Treatments included a no preservative Control, 500 ppm Nisin, 0.1% Potassium sorbate +500 ppm Nisin (Ps+N), and 1% Bacillus fermentate +500 ppm Nisin (BA+N). Usage rates were in the range of typical inclusion in finished foods.

nisin
yeast counts compared to Bacillus-treated samples: rose much higher
